Data: article PMC13244789, “Cutibacterium Adaptation to Life on Humans Provides a Potential C acnes Infection Biomarker” (The Journal of investigative dermatology, 2025)

Target: T1, RoxP_1 (8His-TEV-RoxP_1, RoxP_1-tagless) (Cutibacterium acnes, UniProt Q6A6F6)
T1 construct: gene PPA1939; mature secreted protein; E. coli host, PelB signal peptide
Assay: native gel shift (Coomassie, TCE tryptophan protection)
Assay type: binding
Settings: HSB pH 7.4; weaker than hemin

T1 sequence (Q6A6F6 entry or part of it): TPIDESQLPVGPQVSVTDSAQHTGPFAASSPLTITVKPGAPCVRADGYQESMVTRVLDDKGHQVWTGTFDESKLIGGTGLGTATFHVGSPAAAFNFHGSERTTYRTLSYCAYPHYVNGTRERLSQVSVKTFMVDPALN

C=CC1=C(C)c2cc3[nH]c(cc4nc(cc5[nH]c(cc1n2)c(C)c5CCC(=O)O)C(CCC(=O)O)=C4C)c(C)c3C=C [protoporphyrin IX]
native gel shift (Coomassie, TCE tryptophan protection): porphyrins revealed weaker binding to PPIX but no detectable binding to coproporphyrin III
